Activity calls are given as the source filed them. The calls are words filed in the database; no cut-off is given here.
Experiments:
[1] = biological target: Sodium-dependent serotonin transporter (Homo sapiens, UniProt P31645); test: Binding affinity at human SERT
[2] = biological target: Sodium-dependent serotonin transporter (Rattus norvegicus, UniProt P31652); test: Binding affinity at rat SERT
[3] = tested on: Mus musculus; test: Effect on 5HTP induced mouse head twitch model at 10 mg/kg after 1 hr; type: functional, organism-based; parameters: dose 10 mg/kg
[4] = tested on: Mus musculus; test: Effect on 5HTP induced mouse head twitch model at 10 mg/kg after 24 hrs; type: functional
[5] = biological target: Histamine H3 receptor (Homo sapiens, UniProt Q9Y5N1); test: Antagonistic activity at H3 receptor expressed in […] cells assessed as forskolin stimulated cyclic AMP accumulation by functional assay; type: cell-based, SK-N-MC; details: read-out: pA2 (converted)
Histamine H3 receptor, sequence (Q9Y5N1 whole entry): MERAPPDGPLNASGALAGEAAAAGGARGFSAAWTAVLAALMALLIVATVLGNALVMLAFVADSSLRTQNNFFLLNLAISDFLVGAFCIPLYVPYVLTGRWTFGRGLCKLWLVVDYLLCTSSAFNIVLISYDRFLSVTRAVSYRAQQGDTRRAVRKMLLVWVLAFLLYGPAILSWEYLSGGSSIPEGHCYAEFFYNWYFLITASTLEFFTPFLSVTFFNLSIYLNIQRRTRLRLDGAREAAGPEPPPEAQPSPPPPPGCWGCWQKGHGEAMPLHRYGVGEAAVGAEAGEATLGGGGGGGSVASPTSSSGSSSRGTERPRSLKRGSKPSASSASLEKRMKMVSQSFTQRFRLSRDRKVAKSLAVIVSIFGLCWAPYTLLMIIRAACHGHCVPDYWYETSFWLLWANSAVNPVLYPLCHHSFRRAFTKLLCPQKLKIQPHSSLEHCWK

Sodium-dependent serotonin transporter (Homo sapiens, UniProt P31645), sequence (P31645 whole entry): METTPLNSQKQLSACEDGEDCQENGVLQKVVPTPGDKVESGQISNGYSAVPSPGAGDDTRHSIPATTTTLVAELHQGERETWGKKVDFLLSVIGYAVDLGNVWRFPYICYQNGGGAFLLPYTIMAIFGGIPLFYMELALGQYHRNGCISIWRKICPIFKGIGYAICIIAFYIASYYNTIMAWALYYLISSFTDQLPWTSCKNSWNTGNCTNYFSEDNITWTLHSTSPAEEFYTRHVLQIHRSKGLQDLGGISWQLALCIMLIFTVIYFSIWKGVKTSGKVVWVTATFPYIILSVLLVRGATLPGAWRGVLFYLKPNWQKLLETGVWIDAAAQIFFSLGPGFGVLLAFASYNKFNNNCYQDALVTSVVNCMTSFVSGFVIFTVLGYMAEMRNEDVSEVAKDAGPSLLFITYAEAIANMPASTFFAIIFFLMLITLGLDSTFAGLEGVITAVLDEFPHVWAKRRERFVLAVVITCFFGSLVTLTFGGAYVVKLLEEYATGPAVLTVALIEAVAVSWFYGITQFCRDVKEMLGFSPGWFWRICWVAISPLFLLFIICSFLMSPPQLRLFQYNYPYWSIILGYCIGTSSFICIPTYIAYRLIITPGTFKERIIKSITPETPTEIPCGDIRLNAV
Sodium-dependent serotonin transporter (Rattus norvegicus, UniProt P31652), sequence (P31652 whole entry): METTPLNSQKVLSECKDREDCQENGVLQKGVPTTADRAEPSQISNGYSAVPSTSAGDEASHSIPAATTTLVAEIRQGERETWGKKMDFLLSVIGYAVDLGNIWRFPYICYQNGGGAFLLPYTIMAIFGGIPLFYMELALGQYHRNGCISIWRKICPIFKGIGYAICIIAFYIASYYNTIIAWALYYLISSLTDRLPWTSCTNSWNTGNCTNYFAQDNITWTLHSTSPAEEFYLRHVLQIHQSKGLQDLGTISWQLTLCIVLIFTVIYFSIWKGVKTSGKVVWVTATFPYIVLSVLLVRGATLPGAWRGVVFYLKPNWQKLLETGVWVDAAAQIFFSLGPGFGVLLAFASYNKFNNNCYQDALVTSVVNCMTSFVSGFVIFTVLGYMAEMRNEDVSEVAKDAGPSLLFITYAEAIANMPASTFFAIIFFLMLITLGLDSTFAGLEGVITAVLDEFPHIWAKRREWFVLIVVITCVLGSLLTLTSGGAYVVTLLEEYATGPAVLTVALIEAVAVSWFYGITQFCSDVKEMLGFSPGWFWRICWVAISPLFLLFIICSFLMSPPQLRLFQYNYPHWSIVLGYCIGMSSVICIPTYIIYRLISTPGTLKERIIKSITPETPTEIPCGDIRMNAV

Compound	Ki [1]	Ki [2]	Kb [5]	Activity [3]	Activity [4]
CN(C)CCC(Oc1ccccc1)c1ccc(OCCCN2CCCCC2)cc1 (centres undefined)	25.7 nM				
CSc1ccc(C2CN(C)Cc3cc(Oc4nc(CN5CCCCC5)cs4)ccc32)cc1 (centres undefined)			20 nM		
CSc1ccc(C2CN(C)Cc3cc(Oc4nc(CN5CCOCC5)cs4)ccc32)cc1 (centres undefined)	15.5 nM	14 nM			

Now from value to compound, other results behind:

Ki [1]	Ki [2]	Kb [5]	Compound	Activity [3]	Activity [4]
8.3 nM	9.7 nM		CSc1ccc(C2CN(C)Cc3cc(Oc4cncc(CN5CCCCC5)c4)ccc32)cc1 (centres undefined)		
		20 nM	CSc1ccc(C2CN(C)Cc3cc(Oc4ccc(CN5CCCCC5)cn4)ccc32)cc1 (centres undefined)	inactive	272%
